Here are results for 15 molecules from ChEMBL document CHEMBL3301562, “MMV Box screening against Plasmodium falciparum protein kinases and aminoacyl tRNA synthetases”.

Bounds are passed on as bounds.

Common to all, as to type: functional
Experiment [1] deals with Calcium-dependent protein kinase 1 (Plasmodium falciparum, UniProt P62344). The experiment is described as follows: MMV: CDPK1 Protein kinase inhibition assay using recombinant PfCDPK1, syntide 2 peptide substrate, ATP and KinaseGlo to measure % inhibition at 1 uM MMV box compound. For orientation: Kinase-Glo reads ATP consumption through a luciferase reaction.
The target in experiment [2] is T1, Proline--tRNA ligase (Plasmodium falciparum (isolate 3D7), UniProt Q8I5R7).
T1 sequence (Q8I5R7 whole entry): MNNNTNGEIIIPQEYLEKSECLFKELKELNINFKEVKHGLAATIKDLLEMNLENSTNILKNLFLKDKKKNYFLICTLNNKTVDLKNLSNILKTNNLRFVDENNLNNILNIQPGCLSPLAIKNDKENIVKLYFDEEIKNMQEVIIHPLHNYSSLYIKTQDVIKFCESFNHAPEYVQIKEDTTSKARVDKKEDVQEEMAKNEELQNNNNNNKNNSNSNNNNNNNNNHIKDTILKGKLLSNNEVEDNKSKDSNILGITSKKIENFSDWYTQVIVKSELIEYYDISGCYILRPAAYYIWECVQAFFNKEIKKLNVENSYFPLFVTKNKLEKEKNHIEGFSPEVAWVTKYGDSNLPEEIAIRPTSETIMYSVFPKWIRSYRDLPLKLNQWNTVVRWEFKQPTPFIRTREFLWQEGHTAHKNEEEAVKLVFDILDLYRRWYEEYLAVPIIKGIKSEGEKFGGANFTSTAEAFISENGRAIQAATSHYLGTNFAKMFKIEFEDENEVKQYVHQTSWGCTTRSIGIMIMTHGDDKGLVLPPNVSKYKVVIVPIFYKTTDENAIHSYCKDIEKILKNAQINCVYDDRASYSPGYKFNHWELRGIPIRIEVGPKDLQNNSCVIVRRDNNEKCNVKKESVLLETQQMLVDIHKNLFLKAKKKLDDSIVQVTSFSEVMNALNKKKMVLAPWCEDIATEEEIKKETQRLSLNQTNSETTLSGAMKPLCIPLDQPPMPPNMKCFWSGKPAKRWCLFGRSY
The experiment is described as follows: MMV: ProRS recombinant Plasmodium falciparum Prolyl-tRNA-synthetase, assay with yeast tRNA, ATP, and proline and 3 uM MMV malaria box compound, assay read out with kinase glo as % inhibition.

Experiment [3] concerns the target T2, Calcium-dependent protein kinase 4 (Plasmodium falciparum (isolate 3D7), UniProt Q8IBS5).
T2 sequence (Q8IBS5 whole entry): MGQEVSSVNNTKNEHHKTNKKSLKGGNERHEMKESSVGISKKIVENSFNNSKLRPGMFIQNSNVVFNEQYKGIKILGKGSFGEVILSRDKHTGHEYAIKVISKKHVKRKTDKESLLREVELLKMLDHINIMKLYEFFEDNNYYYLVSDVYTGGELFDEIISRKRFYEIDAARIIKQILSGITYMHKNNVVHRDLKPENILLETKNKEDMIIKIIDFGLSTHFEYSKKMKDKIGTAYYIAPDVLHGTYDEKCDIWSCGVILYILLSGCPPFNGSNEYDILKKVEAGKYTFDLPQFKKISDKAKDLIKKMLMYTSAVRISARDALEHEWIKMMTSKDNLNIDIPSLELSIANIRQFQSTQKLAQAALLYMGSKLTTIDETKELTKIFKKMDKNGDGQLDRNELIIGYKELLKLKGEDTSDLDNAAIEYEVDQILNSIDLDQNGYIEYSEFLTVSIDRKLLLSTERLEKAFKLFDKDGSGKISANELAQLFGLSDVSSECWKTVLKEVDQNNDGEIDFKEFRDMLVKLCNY
The experiment is described as follows: MMV: CDPK4 Protein kinase inhibition assay using recombinant PfCDPK4, syntide2 peptide substrate, ATP and KinaseGlo to measure % inhibition at 1 uM MMV box compound.

Experiment [4] deals with T3, Putative uncharacterized protein pk7 (Plasmodium falciparum, UniProt O96214).
T3 sequence (O96214 whole entry): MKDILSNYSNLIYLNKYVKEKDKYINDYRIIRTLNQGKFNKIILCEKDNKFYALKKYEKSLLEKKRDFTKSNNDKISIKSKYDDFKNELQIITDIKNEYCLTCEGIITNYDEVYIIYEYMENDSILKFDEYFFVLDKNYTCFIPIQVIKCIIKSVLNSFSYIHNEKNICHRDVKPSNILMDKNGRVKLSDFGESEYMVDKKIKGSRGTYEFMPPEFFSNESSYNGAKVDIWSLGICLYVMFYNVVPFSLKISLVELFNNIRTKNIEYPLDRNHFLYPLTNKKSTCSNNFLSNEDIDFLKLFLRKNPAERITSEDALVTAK
The experiment is described as follows: Final concentrations were 1 uM ATP, 2 mM DTT, 20 mM MgCl2, 2 mM MnCl2, 0.01% BSA, and 6 ug/ml PK7, in a buffer of 20 mM Tris-HCl (pH 7.5). The enzyme itself was the only substrate present (since autophosphorylation occurs); 100 uM 1NA-PP1 was used as a control inhibitor. Incubation time was 3 hours.

For experiment [5], the target named is T4, Cdk-related protein kinase 6 (Plasmodium falciparum, UniProt O77239).
T4 sequence (O77239 whole entry): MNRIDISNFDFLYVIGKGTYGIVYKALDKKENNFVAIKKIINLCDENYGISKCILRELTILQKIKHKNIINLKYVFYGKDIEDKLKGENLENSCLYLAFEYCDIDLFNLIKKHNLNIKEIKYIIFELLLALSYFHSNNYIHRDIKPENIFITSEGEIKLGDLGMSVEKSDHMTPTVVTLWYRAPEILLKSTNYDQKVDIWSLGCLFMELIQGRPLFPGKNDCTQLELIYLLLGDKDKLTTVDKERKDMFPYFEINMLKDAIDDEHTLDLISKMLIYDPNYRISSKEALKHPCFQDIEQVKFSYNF
Put plainly: Final concentrations were 1.5 uM ATP, 5 mM MnCl2, and 15 ug/ml PK6 in a buffer of 100 mM Tris-HCl (pH 7.5). 50 ug/mL MBP was provided as the substrate; 10 uM staurosporine was used as a control inhibitor. Incubation time was 3 hours and 40 minutes.The catalytic activity of each kinase was considered proportional to ATP consumed, as determined from measurements of residual [ATP] with the luciferase-based reagent Kinase-Glo (Promega) following incubation. Luminescence (proportional to residual [ATP]) was measured on the plate readers FLx800 (BioTek Instruments, Winooski, VT, USA) and MicroBeta2.

Experiment [6] has as its target T5, Mitogen-activated protein kinase (Plasmodium falciparum, UniProt Q25917).
T5 sequence (Q25917 whole entry): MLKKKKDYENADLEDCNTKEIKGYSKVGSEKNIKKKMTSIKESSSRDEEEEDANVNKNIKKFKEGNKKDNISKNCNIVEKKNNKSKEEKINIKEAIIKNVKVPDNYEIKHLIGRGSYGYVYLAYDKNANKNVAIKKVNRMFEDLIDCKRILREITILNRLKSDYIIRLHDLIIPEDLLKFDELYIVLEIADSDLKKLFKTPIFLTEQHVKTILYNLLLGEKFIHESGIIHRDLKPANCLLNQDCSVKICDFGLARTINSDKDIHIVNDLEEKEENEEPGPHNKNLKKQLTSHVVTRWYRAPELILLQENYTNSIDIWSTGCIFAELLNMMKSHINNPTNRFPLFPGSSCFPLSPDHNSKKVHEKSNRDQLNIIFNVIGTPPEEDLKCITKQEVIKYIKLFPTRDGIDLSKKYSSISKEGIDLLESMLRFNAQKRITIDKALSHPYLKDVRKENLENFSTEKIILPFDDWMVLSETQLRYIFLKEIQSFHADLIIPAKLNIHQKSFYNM
The experiment is described as follows: Final concentrations were 1 uM ATP, 0.5 mM DTT, 1 mM MgCl2, 0.5 mg/mL BSA, and 10 ug/ml MAP2 in a buffer of 50 mM HEPES (pH 7.0). 0.5 mg/mL histone III-S served as the substrate (13); 100 uM AMP-PNP, an ATP analog, was used as a control inhibitor. Incubation time was 4 hours.

Experiment [7] addresses Lysine--tRNA ligase (Plasmodium falciparum (isolate 3D7), UniProt Q8IDJ8). The experiment is described as follows: MMV: KRS recombinant Plasmodium falciparum Lysyl-tRNA-synthetase, assay with yeast tRNA, ATP, and lysine and 3 uM MMV malaria box compound, assay read out with kinase glo as % inhibition.

Sequence of Lysine--tRNA ligase (Q8IDJ8 whole entry): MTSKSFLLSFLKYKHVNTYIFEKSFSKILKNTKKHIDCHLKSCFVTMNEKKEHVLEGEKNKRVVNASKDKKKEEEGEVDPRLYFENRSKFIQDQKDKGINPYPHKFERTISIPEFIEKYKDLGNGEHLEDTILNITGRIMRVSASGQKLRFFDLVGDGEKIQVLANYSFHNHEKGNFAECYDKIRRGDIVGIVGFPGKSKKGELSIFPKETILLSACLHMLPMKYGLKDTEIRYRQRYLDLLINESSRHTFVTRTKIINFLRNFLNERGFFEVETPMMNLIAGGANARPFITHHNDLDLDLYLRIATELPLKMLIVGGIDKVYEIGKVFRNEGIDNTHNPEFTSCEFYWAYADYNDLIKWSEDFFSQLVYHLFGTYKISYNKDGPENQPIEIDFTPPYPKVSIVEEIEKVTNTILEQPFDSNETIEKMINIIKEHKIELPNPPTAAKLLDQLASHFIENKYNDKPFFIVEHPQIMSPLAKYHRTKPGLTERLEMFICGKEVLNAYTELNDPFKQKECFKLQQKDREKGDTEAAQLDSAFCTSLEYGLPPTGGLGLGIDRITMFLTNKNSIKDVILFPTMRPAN
Sequence of Calcium-dependent protein kinase 1 (P62344 whole entry): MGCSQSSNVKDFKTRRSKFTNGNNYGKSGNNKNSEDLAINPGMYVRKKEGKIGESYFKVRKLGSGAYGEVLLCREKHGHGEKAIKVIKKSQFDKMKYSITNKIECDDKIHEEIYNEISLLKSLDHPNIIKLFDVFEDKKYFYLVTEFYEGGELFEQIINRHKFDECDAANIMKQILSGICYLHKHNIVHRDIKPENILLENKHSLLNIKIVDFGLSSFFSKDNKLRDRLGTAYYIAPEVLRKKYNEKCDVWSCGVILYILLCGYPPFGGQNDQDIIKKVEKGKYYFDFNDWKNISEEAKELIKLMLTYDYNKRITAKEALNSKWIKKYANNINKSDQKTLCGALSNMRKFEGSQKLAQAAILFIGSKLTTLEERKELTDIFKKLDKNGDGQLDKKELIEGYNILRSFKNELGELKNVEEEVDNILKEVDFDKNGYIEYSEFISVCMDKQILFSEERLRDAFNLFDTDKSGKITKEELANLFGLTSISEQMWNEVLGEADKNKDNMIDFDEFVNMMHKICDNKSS

As usually defined, the IC50 is the concentration needed to halve the response being measured. Regarding `CCCCCCc1cc2cc(-c3nc4ccccc4[nH]3)c(=Nc3ccccc3C)oc2cc1O`, the IC50 in experiment [1] is over 1000 nM; in experiment [2], over 2500 nM; in experiment [3], over 1000 nM; in experiment [4], over 1000 nM; in experiment [5] it was over 1000 nM; in experiment [6], over 1000 nM. The IC50 in experiment [7] is over 2500 nM.
On to `CCCCNc1nc(NC(C)(C)C)nc(NC(C)(C)C)n1`, for which the IC50 in experiment [1] is over 1000 nM; in experiment [2], over 2500 nM; in experiment [3], over 1000 nM; in experiment [4], over 1000 nM; in experiment [5], over 1000 nM; in experiment [6], over 1000 nM. In experiment [7], the IC50 is over 2500 nM.
For the molecule `CCN(CC)c1ccc(NC(=O)c2cccs2)cc1`, the IC50 in experiment [1] was over 1000 nM; in experiment [2], over 2500 nM; in experiment [3], over 1000 nM; in experiment [4], over 1000 nM; in experiment [5], over 1000 nM; in experiment [6], over 1000 nM. Moreover, the IC50 in experiment [7] is over 2500 nM.
As for `COc1ccc(-c2nc(NC(=O)CS(=O)(=O)c3ccc(F)cc3)sc2C)cc1`, the IC50 in experiment [1] is over 1000 nM; in experiment [2] it was over 2500 nM; in experiment [3] it was over 1000 nM; in experiment [4] it was over 1000 nM; in experiment [5] it was over 1000 nM; in experiment [6], over 1000 nM. Moreover, the IC50 in experiment [7] was over 2500 nM.
As to `Cc1ccc2nc(C)cc(Nc3cccc(C(F)(F)F)c3)c2c1`, the IC50 in experiment [1] was over 1000 nM; in experiment [2] it was over 2500 nM; in experiment [3], over 1000 nM; in experiment [4], over 1000 nM; in experiment [5], over 1000 nM; in experiment [6], over 1000 nM. Also, the IC50 in experiment [7] was over 2500 nM.
Turning to `CCCc1c(C)nc2ccccc2c1O`, the IC50 is over 1000 nM in experiment [1]; over 2500 nM in experiment [2]; over 1000 nM in experiment [3]; over 1000 nM in experiment [4]; over 1000 nM in experiment [5]; over 1000 nM in experiment [6]. In addition, the IC50 in experiment [7] was over 2500 nM.
Turning to `O=C(Nc1ccsc1C(=O)NC1CCCCC1)c1ccc(F)cc1`, the IC50 in experiment [1] was over 1000 nM; in experiment [2] it was over 2500 nM; in experiment [3] it was over 1000 nM; in experiment [4], over 1000 nM; in experiment [5], over 1000 nM; in experiment [6] it was over 1000 nM. Further, the IC50 in experiment [7] was over 2500 nM.
As for `Nc1nc(Nc2cccc(F)c2)nc2ccccc12`, the IC50 is over 1000 nM in experiment [1]; over 2500 nM in experiment [2]; over 1000 nM in experiment [3]; over 1000 nM in experiment [4]; over 1000 nM in experiment [5]; over 1000 nM in experiment [6]. Also, the IC50 in experiment [7] is over 2500 nM.
`CCN(CC)CCn1c(=N)n(CC(O)c2ccc(Cl)c(Cl)c2)c2ccccc21` (stereo not given): the IC50 was over 1000 nM in experiment [1]; over 2500 nM in experiment [2]; over 1000 nM in experiment [3]; over 1000 nM in experiment [4]; over 1000 nM in experiment [5]; over 1000 nM in experiment [6]. Moreover, the 50% inhibitory concentration (IC50) in experiment [7] was over 2500 nM.
As to `COc1ccc(CCN2C(=O)c3[nH]nc(-c4cc(Cl)c(C)cc4O)c3C2c2ccccc2F)cc1` (stereo not given), the IC50 in experiment [1] is over 1000 nM; in experiment [2], over 2500 nM; in experiment [3], over 1000 nM; in experiment [4], over 1000 nM; in experiment [5], over 1000 nM; in experiment [6] it was over 1000 nM. Besides, the IC50 in experiment [7] is over 2500 nM.
Regarding `CCOc1cccc2sc(N(Cc3cccnc3)C(=O)C3CCCCC3)nc12`, the IC50 in experiment [1] was over 1000 nM; in experiment [2], over 2500 nM; in experiment [3] it was over 1000 nM; in experiment [4], over 1000 nM; in experiment [5] it was over 1000 nM; in experiment [6] it was over 1000 nM. For the same molecule, the IC50 in experiment [7] is over 2500 nM.
With `O=C(Nc1ccc(CN2CCOCC2)cc1)c1ccc(-c2cc(Cl)ccc2Cl)o1`, the IC50 in experiment [1] was over 1000 nM; in experiment [2], over 2500 nM; in experiment [3], over 1000 nM; in experiment [4], over 1000 nM; in experiment [5], over 1000 nM; in experiment [6] it was over 1000 nM. In addition, in experiment [7], the IC50 was over 2500 nM.
Take `Oc1c(CN2CCN(c3ccccc3F)CC2)cc(Br)c2cccnc12`: the IC50 was over 1000 nM in experiment [1]; over 2500 nM in experiment [2]; over 1000 nM in experiment [3]; over 1000 nM in experiment [4]; over 1000 nM in experiment [5]; over 1000 nM in experiment [6]. In addition, in experiment [7], the IC50 was over 2500 nM.
As for `CCc1ccc(Nc2cc(C)c3ccc(O)cc3n2)cc1`, the IC50 in experiment [1] is over 1000 nM; in experiment [2] it was over 2500 nM; in experiment [3], over 1000 nM; in experiment [4], over 1000 nM; in experiment [5] it was over 1000 nM; in experiment [6], over 1000 nM. Also, the IC50 in experiment [7] is over 2500 nM.
As to `Cc1ccc(Nc2nc(N)c3ccccc3n2)cc1Cl`, the IC50 is over 1000 nM in experiment [1]; over 2500 nM in experiment [2]; over 1000 nM in experiment [3]; over 1000 nM in experiment [4]; over 1000 nM in experiment [5]; over 1000 nM in experiment [6]. In addition, the IC50 in experiment [7] was over 2500 nM.
